These are literature values, as cited in patent US9226906B2, “Method and nutritional supplement for enhancing weight gain of a mammal” (Supragenix, LLC, priority 2013, dated 2016).

Sequence of CB1 (P21554 whole entry, species assumed): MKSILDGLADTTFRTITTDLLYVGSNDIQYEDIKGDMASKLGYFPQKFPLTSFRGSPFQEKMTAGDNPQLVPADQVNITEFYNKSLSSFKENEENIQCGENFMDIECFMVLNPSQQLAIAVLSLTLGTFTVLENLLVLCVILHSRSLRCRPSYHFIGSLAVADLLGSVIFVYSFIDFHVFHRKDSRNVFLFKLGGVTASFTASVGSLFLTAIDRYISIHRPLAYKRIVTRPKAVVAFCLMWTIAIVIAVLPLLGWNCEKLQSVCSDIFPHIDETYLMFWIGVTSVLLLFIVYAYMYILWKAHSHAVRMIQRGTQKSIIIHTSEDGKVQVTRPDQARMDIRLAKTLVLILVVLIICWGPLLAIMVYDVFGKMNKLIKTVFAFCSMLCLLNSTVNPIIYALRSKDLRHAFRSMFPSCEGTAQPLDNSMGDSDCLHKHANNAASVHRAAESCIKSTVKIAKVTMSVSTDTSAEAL

The data set has as its target CB1 (Homo sapiens, UniProt P21554).
Regarding `CC#CC#CCCCC/C=C/C(=O)NCC(C)CC` (centres unmarked) [Dodeca-2E-ene-8,10-diynoic acid 2-methylbutylamide], the “activating CB1” value is reported as “effective in activating CB1”.

Turning to `CC#CC#CCC/C=C\C=C\C(=O)NCC(C)C` [Dodeca-2E,4Z-diene-8,10-diynoic acid isobutylamide], the “activating CB1” value was “effective in activating CB1”.

`CCCCCCC/C=C/C=C/C(=O)NCC(C)C` [Dodeca-2E,4E-dienoic acid isobutylamide]: the “activating CB1” value is “effective in activating CB1”.

Consider `C#CC#CCC/C=C/C=C\C(=O)NCC(C)C` [Undeca-2Z,4E-diene-8,10-diynoic acid isobutylamide], for which the “activating CB1” value is reported as “effective in activating CB1”.

Regarding “Dodeca-2E,4E,8Z,10E/Z-tetraenoic acid isobutylamides”, the “activating CB1” value is listed as “effective in activating CB1”.

Turning to `C#CC#CCCCCC=CC(=O)NCC(C)C` [Undeca-2-ene-8,10-diynoic acid isobutylamide], the “activating CB1” value is given as “effective in activating CB1”.

`CCC/C=C\CC/C=C/C=C/C(=O)NCC(C)C` [Dodeca-2E,4E,8Z-trienoic acid isobutylamide]: the “activating CB1” value is given as “effective in activating CB1”.

In the case of `C#CC#CC/C=C\CCCCC/C=C/C(=O)NCC(C)C` [Pentadeca-2E,9Z-diene-12,14-diynoic acid isobutylamide], the “activating CB1” value is recorded as “effective in activating CB1”.
